Measurements published in patent publication US20210317140A1, “Heterocyclic Compounds and Methods of Use” (MEDIVATION TECHNOLOGIES, INC, priority 2013, published 2021).

How the values were obtained:
BTK = molecular target: T1, BTK (Homo sapiens, UniProt Q06187); assay: BTK kinase assay (HotSpot, 33P ATP); assay type: biochemical; settings: for BTK @ 0.1 μM (% Inh): 0.1 μM compound, 10 μM ATP; for IC50: 10 dose IC50, 10 μM ATP
T1 construct: purchased Reaction Biology Corporation
Outline: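 In 20 mM Hepes (pH 7.5) with 10 mM MgCl2, 1 mM EGTA, 0.1 mM Na3VO4, 2 mM DTT, 0.02% Brij35, 0.02 mg/mL BSA and 1% DMSO, kinase and substrate were exposed to ten compound doses for 15–20 min.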

ITK = molecular target: T2, ITK (Homo sapiens, UniProt Q08881); assay: ITK kinase profiling (BTK protocol); assay type: biochemical; settings: 0.3 μM compound
T2 construct: purchased Reaction Biology Corporation
T2 sequence (Q08881 1-620): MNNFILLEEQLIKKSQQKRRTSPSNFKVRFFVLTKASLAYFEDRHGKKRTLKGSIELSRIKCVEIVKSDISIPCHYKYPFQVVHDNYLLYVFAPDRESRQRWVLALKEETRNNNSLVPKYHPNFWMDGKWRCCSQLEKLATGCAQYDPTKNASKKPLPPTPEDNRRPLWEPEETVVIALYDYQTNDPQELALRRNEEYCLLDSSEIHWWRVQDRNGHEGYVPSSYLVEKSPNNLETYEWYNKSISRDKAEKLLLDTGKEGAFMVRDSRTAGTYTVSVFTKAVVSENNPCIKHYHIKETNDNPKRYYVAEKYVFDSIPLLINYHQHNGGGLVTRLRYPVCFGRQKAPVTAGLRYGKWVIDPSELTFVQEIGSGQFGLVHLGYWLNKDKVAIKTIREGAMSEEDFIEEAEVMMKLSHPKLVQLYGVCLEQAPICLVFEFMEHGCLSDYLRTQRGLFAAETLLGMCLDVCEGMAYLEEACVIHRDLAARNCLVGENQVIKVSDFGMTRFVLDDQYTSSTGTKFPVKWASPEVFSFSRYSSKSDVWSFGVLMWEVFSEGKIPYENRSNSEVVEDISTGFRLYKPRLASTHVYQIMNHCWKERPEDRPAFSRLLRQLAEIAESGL
Procedure: (§1) BTK assay: In vitro profiling protein kinases was performed using the “HotSpot” assay platform. Briefly, specific kinase/substrate pairs along with required cofactors were prepared in reaction buffer. Compounds were prepared as 10 mM stock solutions in DMSO. Compounds were delivered into the reaction, followed 15-20 minutes later by addition of a mixture of ATP (Sigma, St. Louis Mo.) and ^33P ATP (Perkin Elmer, Waltham Mass.) to a final concentration of 10 μM. […] IC50 values and curve fits were obtained using Prism (GraphPad Software). Buffer Conditions: 20 mM Hepes (pH 7.5), 10 mM MgCl2, 1 mM EGTA, 0.02% Brij35, 0.02 mg/mL BSA, 0.1 mM Na3VO4, 2 mM DTT, 1% DMSO.

TEC = molecular target: T3, TEC (Homo sapiens, UniProt P42680); assay: TEC kinase profiling (BTK protocol); assay type: biochemical; settings: 0.3 μM compound
T3 construct: purchased Reaction Biology Corporation
T3 sequence (P42680 1-631): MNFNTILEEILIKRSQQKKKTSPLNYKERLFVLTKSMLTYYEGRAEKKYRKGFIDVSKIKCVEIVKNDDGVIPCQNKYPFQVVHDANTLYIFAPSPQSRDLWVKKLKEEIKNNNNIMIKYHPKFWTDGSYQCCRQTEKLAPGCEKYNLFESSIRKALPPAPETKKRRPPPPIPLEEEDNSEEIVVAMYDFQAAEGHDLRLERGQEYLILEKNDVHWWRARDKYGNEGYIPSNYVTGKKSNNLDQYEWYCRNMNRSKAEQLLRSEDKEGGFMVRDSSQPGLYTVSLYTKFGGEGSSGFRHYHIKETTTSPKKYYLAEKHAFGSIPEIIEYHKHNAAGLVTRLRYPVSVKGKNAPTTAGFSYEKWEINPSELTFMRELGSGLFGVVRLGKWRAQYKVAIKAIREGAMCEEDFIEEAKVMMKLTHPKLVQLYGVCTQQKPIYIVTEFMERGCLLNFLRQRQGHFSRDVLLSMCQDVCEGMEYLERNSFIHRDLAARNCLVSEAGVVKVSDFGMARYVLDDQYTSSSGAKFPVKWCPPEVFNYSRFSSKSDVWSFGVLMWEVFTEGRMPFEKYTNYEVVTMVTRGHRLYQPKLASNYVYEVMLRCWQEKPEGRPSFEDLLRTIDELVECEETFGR
Procedure: as §1

CD69+B220+ cells = assay: B cell activation assay (IgD-stimulated splenocytes, CD69+B220+ cells by FACS); assay type: cell-based; settings: 100 nM compound, mouse splenocytes, IgD 3 μg/mL, 4 h
Outline: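 Mouse splenocytes (female, ~2 months), red cells lysed, at 10^6 cells/mL, pretreated 30 min at 37 °C with 100 nM compound, then anti-IgD 3 μg/mL for 4 h. Read as CD69+B220+ cells as percentage of live B220+ cells by flow cytometry.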

PI3Kα = molecular target: T4, PI3Kα (Homo sapiens, UniProt P42336); assay: PI3Kα isoform profiling (PI3Kδ protocol); assay type: biochemical; settings: 0.3 μM compound
T4 construct: purchased Reaction Biology Corporation
From the text: PI3Kδ assay: The PIP3 product is detected by displacement of biotin-PIP3 from an energy transfer complex consisting of Europium labeled anti-GST monoclonal antibody, a GST-tagged pleckstrin homology (PH) domain, biotinylated PIP3 and Streptavidin-Allophycocyanin (APC). Excitation of Europium in the complex results in an energy transfer to the APC and a fluorescent emission at 665 nm. The PIP3 product formed by PI 3-Kinase(h) activity displaces biotin-PIP3 from the complex resulting in a loss of energy transfer and thus a decrease in signal. This is a 3-step reaction: First, the kinase reaction with PIP2 substrate is carried out in the presence of ATP (10 μM), and the reaction is quenched with stop Solution, and then finally detect by adding Detection Mixture followed by incubation (10 min). Reaction procedure: 1) Prepare substrate in freshly prepared Reaction Buffer. 2) Deliver kinase into the substrate solution and gently mix. 3) Deliver compounds in 100% DMSO (1 μM) into the kinase reaction mixture by Acoustic technology (Echo550; nanoliter range), incubate for 10 min at RT. 4) Deliver ATP into the reaction mixture to initiate the reaction. 5) Incubate for 30 min at 30° C. 6) Quench the reaction with Stop Solution. 7) Add Detection Mixture, and incubate for overnight. 8) Measure HTRF: Ex=320 nm, ratio of Em=615 nm and Em=665 nm. The emission ratio is converted into μM PIP3 production based on PIP3 standard curves. The nonlinear regression to obtain the standard curve and IC50 values are performed using Graphpad Prism software. Assay Buffer: HEPES 50 mM (pH7.0), NaN3 0.02%, BSA 0.01%, Orthovanadate 0.1 mM, 1% DMSO. Detection buffer: HEPES 10 mM (pH7.0), BSA 0.02%, KF 0.16 M, EDTA 4 mM. Substrate: 10 μM PIP2 substrate (PI(4,5)P2).
Compounds of the invention were profiled in a 10 dose IC50 panel against PI3Kα, PI3Kβ, and PI3Kγ kinases, provided by Reaction Biology Corporation, applied to the PI3Kδ protocol provided in Example B1.

T1 sequence (Q06187 whole entry): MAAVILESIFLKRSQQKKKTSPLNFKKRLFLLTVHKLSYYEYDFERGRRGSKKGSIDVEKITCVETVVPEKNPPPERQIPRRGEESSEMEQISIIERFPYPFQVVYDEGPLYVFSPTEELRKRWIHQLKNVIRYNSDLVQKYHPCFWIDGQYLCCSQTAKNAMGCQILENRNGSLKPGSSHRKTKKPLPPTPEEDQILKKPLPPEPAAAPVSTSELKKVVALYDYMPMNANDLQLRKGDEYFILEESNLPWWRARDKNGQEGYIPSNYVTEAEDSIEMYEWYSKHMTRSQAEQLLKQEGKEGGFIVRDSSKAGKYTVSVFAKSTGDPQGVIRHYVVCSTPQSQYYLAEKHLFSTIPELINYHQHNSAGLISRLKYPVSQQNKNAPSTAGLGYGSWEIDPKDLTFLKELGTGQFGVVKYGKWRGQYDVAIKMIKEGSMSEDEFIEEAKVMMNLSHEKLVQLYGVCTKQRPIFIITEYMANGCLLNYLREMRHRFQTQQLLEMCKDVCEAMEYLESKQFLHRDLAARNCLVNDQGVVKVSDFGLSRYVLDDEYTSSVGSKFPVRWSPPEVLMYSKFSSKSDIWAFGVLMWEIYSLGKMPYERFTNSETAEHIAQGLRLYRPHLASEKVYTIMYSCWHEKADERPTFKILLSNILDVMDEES
T4 sequence (P42336 whole entry, canonical isoform): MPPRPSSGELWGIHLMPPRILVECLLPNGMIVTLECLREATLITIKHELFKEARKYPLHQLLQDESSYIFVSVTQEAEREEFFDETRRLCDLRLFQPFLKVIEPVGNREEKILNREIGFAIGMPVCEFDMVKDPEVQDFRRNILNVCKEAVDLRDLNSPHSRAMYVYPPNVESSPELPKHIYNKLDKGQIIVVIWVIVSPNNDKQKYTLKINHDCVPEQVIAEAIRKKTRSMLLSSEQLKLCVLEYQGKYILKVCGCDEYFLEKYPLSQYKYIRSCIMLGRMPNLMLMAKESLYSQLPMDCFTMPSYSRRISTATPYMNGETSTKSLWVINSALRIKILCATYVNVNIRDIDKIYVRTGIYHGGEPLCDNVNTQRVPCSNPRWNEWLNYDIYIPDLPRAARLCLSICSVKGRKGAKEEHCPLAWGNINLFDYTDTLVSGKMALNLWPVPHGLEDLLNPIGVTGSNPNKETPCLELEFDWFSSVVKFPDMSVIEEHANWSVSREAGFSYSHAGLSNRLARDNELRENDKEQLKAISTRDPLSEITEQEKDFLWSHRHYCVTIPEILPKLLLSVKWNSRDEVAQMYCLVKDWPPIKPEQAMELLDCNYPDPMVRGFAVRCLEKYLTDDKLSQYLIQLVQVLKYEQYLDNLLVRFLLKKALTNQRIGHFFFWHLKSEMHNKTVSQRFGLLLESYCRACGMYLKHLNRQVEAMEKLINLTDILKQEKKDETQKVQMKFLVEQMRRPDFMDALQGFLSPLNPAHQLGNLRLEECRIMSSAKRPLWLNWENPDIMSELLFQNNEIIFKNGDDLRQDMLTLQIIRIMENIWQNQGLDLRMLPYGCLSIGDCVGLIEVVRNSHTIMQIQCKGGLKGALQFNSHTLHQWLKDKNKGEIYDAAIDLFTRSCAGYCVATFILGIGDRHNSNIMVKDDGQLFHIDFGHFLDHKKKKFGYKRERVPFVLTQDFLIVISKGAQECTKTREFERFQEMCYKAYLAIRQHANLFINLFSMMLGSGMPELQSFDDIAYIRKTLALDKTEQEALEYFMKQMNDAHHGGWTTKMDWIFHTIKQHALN
T4 sequence (P27986 whole entry partner, canonical isoform): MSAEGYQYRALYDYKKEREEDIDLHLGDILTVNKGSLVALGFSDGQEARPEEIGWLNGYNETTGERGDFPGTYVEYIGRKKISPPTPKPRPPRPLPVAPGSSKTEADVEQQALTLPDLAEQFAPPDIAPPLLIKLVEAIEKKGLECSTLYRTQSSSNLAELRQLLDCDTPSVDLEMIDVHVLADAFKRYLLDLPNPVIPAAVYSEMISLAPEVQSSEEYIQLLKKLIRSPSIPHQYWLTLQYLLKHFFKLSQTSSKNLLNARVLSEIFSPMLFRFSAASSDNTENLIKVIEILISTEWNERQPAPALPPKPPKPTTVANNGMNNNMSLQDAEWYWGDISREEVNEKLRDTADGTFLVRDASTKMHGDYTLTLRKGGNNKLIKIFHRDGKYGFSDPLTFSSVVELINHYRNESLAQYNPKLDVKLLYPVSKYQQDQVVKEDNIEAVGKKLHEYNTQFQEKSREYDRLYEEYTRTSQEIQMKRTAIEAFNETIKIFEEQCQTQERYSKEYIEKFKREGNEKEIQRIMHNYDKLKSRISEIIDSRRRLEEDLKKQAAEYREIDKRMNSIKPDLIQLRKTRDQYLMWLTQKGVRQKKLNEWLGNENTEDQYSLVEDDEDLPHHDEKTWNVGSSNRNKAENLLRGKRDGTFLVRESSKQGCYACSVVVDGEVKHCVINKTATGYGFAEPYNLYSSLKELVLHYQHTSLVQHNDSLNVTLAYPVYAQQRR

Row | Compound | BTK @ 0.1 μM (% Inh) (BTK) | IC50 (BTK) [nM] | ITK @ 0.3 μM (% Inh) (ITK) | TEC @ 0.3 μM (% Inh) (TEC) | CD69 @ 100 nM (% Inh) (CD69+B220+ cells) | PI3Kα @ 0.3 μM (% Inh) (PI3Kα)
1 | COc1ccc(-c2nn(C3CCc4ccccc4C3)c3ncnc(N)c23)cc1OC (racemic) [compound 17, 3-(3,4-dimethoxyphenyl)-1-(1,2,3,4-tetrahydronaphthalen-2-yl)-1H-pyrazolo[3,4-d]pyrimidin-4-amine] | 41.16 | 164 | −0.36 | 11.45 | 33.56 ± 13.70 (n = 5) % Inh | –
2 | Nc1ncnc2c1c(-c1ccc(Br)c(O)c1)nn2C1CCc2ccccc2C1 (stereo not shown) [compound 8, 5-(4-amino-1-(1,2,3,4-tetrahydronaphthalen-2-yl)-1H-pyrazolo[3,4-d]pyrimidin-3-yl)-2-bromophenol] | 48.87 | 26.1 | 0.02 | 20.18 | – | 76.76
